The nature of data set [1]: Determination of compound solubility in PBS buffer (LC-MS/MS). The class given is physicochemical. To be noted: for solubility at 2 h: 25 °C, kinetic from dmso stock; for Solubility in PBS buffer solution compared with silymarin (in words): pH 4. Here is the method:
The test compounds were 7, 67 and 85, respectively; the control compound was silymarin, purchased from Shanghai Dibai Biotechnology Co., Ltd., with the batch number HH06. Both the test compounds and the control compound were prepared into 10 mM stock solutions using DMSO. Phosphate buffered saline (PBS), with pH of 4.0 and 7.4, was used to test the solubility of the test compounds.
Treatment of test compound and control compound: 30 μL of test compound or control compound stock solution (10 mM) per well was added in a specially made solubility sample plate, and then 970 μL of PBS with different pH was added to each well (pH was 4.0 and 7.4, respectively). Repeated wells were set in the test. A stir bar was added to each well that was covered with a polytetrafluoroethylene or silica gel plug. Stirring was performed at 25° C. at 1100 rpm for 2 hours. 10 μL of sample was taken from each well, and then 990 μL of water and acetonitrile mixture (including internal standard substance) was added to mix well, followed by filtering with a filter plate.
Standard treatment: 10 mM stock solution was diluted with DMSO to 300 μM, then 10 μL of compound diluent was taken, and 990 μL of water and acetonitrile mixture (including internal standard substance) was added to mix well and formulated into a standard solution with the final concentration 3 μM.
The solubility sample plate was placed in the autosampler and the LC-MS/MS method was used for analysis. The concentration of the test compound was calculated by the response value of the test compound and standard, and the concentration of the standard.

The subject of data set [2] is zebrafish non-alcoholic fatty liver. Put plainly: Fat reduction or elimination effect on thioacetamide-induced zebrafish non-alcoholic fatty liver (Oil Red O staining). The class given is in vivo. To be noted: for The total optical density of liver fat: mean ± SE, n = 10. On the procedure:
40 mM stock solution of test compounds 4, 5, 6, 7, 46, 67, 78, 85, 92 and 101 were prepared with DMSO, and stored in a refrigerator at −20° C. The positive control compound S-adenosylmethionine (SAM) was purchased from Aladdin Reagent (Shanghai) Co., Ltd., with the batch number F1523051, which was prepared into a 50 mM stock solution with DMSO. The control compound silymarin was purchased from Shanghai Dibai Biotechnology Co., Ltd., with the batch number EE09, which was prepared into a 40 mM stock solution with DMSO. Thioacetamide was purchased from Sigma-Aldrich, with the batch number BCBV3031, which wasprepared into a 1 M stock solution with DMSO. Oil Red O was purchased from Sigma-Aldrich, with the batch number SLBP5248V. 4% paraformaldehyde was purchased from Dingguo Biotechnology Co., Ltd., with the batch number 773001800. Propylene glycol was purchased from Sinopharm Chemical Reagent Co., Ltd., with the batch number 20170615.
The melanin allele mutant translucent Albino line zebrafish was reproduced in natural paired mating. The fish age was 3 days after fertilization, with 30 fish per experimental group.
The above zebrafish were raised in fish farming water at 28° C. (water quality: 200 mg instant sea salt was added to 1 L of reverse osmosis water, conductivity was 480-510 μS/cm; pH was 6.9-7.2; hardness was 53.7-71.6 mg/L CaCOs), the experimental animal use license number was: SYXK (Zhejiang) 2012-0171. Feeding management met the requirements of international AAALAC certification.
Three days after fertilization, the normal melanin allele mutant translucent Albino strain of zebrafish was randomly selected and placed in a six well plate with 30 fish per well (i.e. each experimental group), and then thioacetamide with the final concentration of 7 mM was used to treat zebrafish for 72 hours to establish the non-alcoholic fatty liver model.
The zebrafish were transferred to a six-well plate, with 30 fish per well (i.e., each experimental group) randomly. Non-alcoholic fatty liver model in zebrafish were induced by thioacetamide. 40 mM test compounds 4, 5, 6, 7, 46, 67, 78, 85, 92 and 101 were quantitatively transferred to a six-well plate, and diluted with water to the corresponding concentration. Test compounds 4, 5, 6 and 7 were formulated into two dose groups with final concentration of 100 μM and 200 μM, respectively; test compound 46 was formulated into a dose group with final concentration of 200 μM; test compounds 67, 78, 85, 92 and 101 were formulated into dose groups with a final concentration of 100 μM; 50 mM positive control SAM was formulated with water to a dose group with final concentration of 50 μM, and a 40 mM positive control silymarin was formulated with water to two concentration dose groups with final concentration of 100 μM and 200 μM. A normal control group (zebrafish treated with fish farming water) and a model control group were set at the same time, and the total volume of each well was 3 mL. Except for the normal control group, the other experimental groups were treated with thioacetamide for 72 hours and stained with Oil Red O. After staining, 10 zebrafish were randomly selected from each experimental group and photographed under a dissecting microscope, NIS-Elements D 3.10 advanced image processing software was used to perform image analysis and collect data, the total optical density (S) of zebrafish liver fat was statistically analyzed, and for the inhibitory effect of each experimental group on liver steatosis of zebrafishwas evaluated by the following formula, the results of statistical analysis were expressed as mean±SE: Inhibition rate of liver steatosis (%)=[S(model control group)−S(test compound group)]/[S(model control group)−S(normal control group)]×100%
Statistical analysis was performed using analysis of variance and Dunnett's T-test, and p<0.05 indicated a significant difference. […]

The subject of data set [3] is Patients With Primary Biliary Cirrhosis. To be noted: phase III study; cited from earlier work.
In data set [4] the test system is adults with nonalcoholic steatohepatitis (NASH) and fibrosis stages F2-F3. To be noted: phase II clinical results; cited from earlier work.
In a further data set the test system is NASH mice. Put plainly: Efficacy on non-alcoholic steatohepatitis (NASH) mice fed high-fat feed. The class given is in vivo, C57BL/6 mice. As to conditions: for Liver coefficient (liver weight/body weight) / Liver weight: 28 days; for Liver weight: X ± SD. On the procedure:
The test compounds were 4 and 7, respectively; the positive control silymarin was purchased from Shanghai Dibai Biotechnology Co., Ltd., with the batch number HH06.
Low-dose group (35 mg/kg) solution preparation: the quantitative test compound was precisely weighed and a certain amount of normal saline was added to prepare the oral suspension solution with the concentration of 3.5 mg/mL. The administration volume was 10 mL/kg.
High-dose group (70 mg/kg) solution preparation: the quantitative test compound was precisely weighed and a certain amount of normal saline was added to prepare the oral suspension solution with the concentration of 7.0 mg/mL. The administration volume was 10 mL/kg.
High-fat feed: basic feed ingredients were corn, flour, imported fish meal, soybean meal, secondary meal, yeast meal, soybean oil, etc. The high-fat feed was prepared from 73.6% basic feed with 10% lard, 10% egg yolk powder, 5% sucrose, 1.2% cholesterol and 0.2% pig bile salt.
Source, species, strain: C57BL/6 mice, provided by Beijing Vital River Laboratory Animal Technology Co., Ltd. Nanjing Branch (experimental animal production license: SCXK (Su) 2016-0003); experimental animal use license: SYXK (Jun) 2012-0049; age: 6-8 weeks at the beginning of dosing; weight: 18-22 g; gender: half male and half female.
After 3 days of adaptive feeding with normal feed, the mice were randomly assigned according to body weight: 8 mice were fed with normal feed and set as normal control (NC); the rest of mice were fed with high-fat feed until the end of the experiment. The mice were weighed and recorded every 3 days. After feeding with high-fat diet for 56 days (8 weeks), blood samples were collected from the orbital vein of mice to detect the blood biochemical indexes to identify whether the modelling was successful.
After successful modeling, the mice in the high-fat feed group were randomly divided into 6 groups with 8 animals in each group, including model group, compound 4 low dose group, compound 4 high dose group, compound 7 low dose group, compound 7 high dose group and silymarin high-dose group. The mice in each group were administered intragastrically according to the animal's body weight every day for 28 consecutive days (4 weeks). At the same time, during the administration period, the mice in each administration group and model group continued to be fed with high-fat feed until the end of the experiment. The normal control group was administered the corresponding volume of normal saline.
On the last day of the experiment, the mice in each group were fasted for 8 hours, blood was taken from the orbit and the serum was separated and then stored at −20° C. After blood collection, the mice were sacrificed and the liver was quickly separated, weighed and stored in a refrigerator at −80° C. Serum samples and liver tissue samples were subjected to determinations of serum triglyceride (TG), serum total cholesterol (TC), serum high-density lipoprotein (HDL-C), serum low-density lipoprotein (LDL-C), serum alanine aminotransferase (ALT), serum aspartate aminotransferase (AST), serum tumor necrosis factor alpha (TNFα), liver triglycerides (TG), liver total cholesterol (TC), liver malondialdehyde (MDA), liver superoxide dismutase (SOD); in addition, some livers of mice in the blank control group, model group, compound 7 low-dose group and silymarin high-dose group were fixed in neutral formaldehyde fixed solution and then HE staining was performed to analyzed the pathological changes of liver tissue.

Setting [5] is: Danio rerio, 100 μM, read-out: Inhibition rate of liver steatosis.

Converted amounts (≈) assume the structure as drawn. Marks after values point to notes of the source that are not given here.

As a reminder, the solubility is the concentration that dissolves in the medium under given conditions. A lower solubility goes with a poorly soluble substance. Usually inhibition stands for the drop in the measured response relative to a control, in per cent.

As to `COc1cc(C2Oc3cc(C4Oc5cc(O)cc(OC)c5CC4O)cc(O)c3OC2CO)ccc1O` (stereo not shown) [Compound 85, 2-{8-hydroxy-3-(4-hydroxy-3-methoxyphenyl)-2-hydroxymethyl-2,3-dihydrobenzo[b][1,4]dioxan-6-yl}-5-methoxychroman-3,7-diol], the concentration in solution in data set [1] (pH 4, aqueous buffer) (solubility at 2 h) was 160 µM (≈ 79.7 µg/mL). In addition, the solubility at 2 h in data set [1] (pH 7.4, aqueous buffer) came to 150 µM (≈ 75 µg/mL). For the same compound, the “Solubility in PBS buffer solution compared with silymarin (in words)” value in data set [1] is “significantly higher than that of silymarin”. In addition, in data set [2] (100 μM), the “Inhibition rate of liver steatosis” value was >100*** %, the “Therapeutic effect on non-alcoholic fatty liver of zebrafish (in words)” value is listed as “significant therapeutic effects” and the “The total optical density of liver fat” value is recorded as 17378 ± 710 Pixels. In addition, the inhibition at 100 µM in data set [2] (setting [5]) was greater than 100%.
Turning to `CC[C@H]1[C@@H](O)[C@@H]2[C@H](CC[C@]3(C)[C@@H]([C@H](C)CCC(=O)O)CC[C@@H]23)[C@@]2(C)CC[C@@H](O)C[C@@H]12` [Obeticholic acid], the “patients with serious cardiovascular adverse events” value in data set [3] is 3%.
In turn, `COc1cc(O)c2c(c1)OC(c1cc(O)c3c(c1)OC(c1ccc(O)c(OC)c1)C(CO)O3)C(O)C2` (stereo not shown) [Compound 67, 2-{8-hydroxy-3-(4-hydroxy-3-methoxyphenyl)-2-hydroxymethyl-2,3-dihydrobenzo[b][1,4]dioxan-6-yl}-7-methoxychroman-3,5-diol] yielded a solubility at 2 h in data set [1] (pH 4, aqueous buffer) of 148 µM (≈ 73.9 µg/mL). The same compound showed a solubility at 2 h in data set [1] (pH 7.4, aqueous buffer) of 146 µM (≈ 72.9 µg/mL). The “Solubility in PBS buffer solution compared with silymarin (in words)” value in data set [1] is “significantly higher than that of silymarin”. In data set [2] (100 μM), the “Inhibition rate of liver steatosis” value was >100*** %, the “Therapeutic effect on non-alcoholic fatty liver of zebrafish (in words)” value was “significant therapeutic effects” and the “The total optical density of liver fat” value is recorded as 16667 ± 469 Pixels. For the same compound, the inhibition at 100 µM in data set [2] (setting [5]) was greater than 100%.
As for `Cc1cc(F)c(C(=O)Nc2cccc(-c3nncn3C(C)C)n2)cc1-n1cnc(C2CC2)c1` [GS-4997], the “subjects with improved fibrosis after treatment” value in data set [4] was 43%.
As for `COc1cc(C2Oc3cc(C4Oc5cc(O)cc(O)c5C(O)C4O)cc(O)c3OC2CO)ccc1O` (stereo not shown) [Compound 4, 2-{8-hydroxy-3-(4-hydroxy-3-methoxyphenyl)-2-hydroxymethyl-2,3-dihydrobenzo[b][1,4]dioxan-6-yl}chroman-3,4,5,7-tetraol], in data set [2] (100 μM), the “Therapeutic effect on non-alcoholic fatty liver of zebrafish (in words)” value is given as “significant therapeutic effects” and the “The total optical density of liver fat” value stood at 18598 ± 608 Pixels. Further, in data set [2] (200 μM), the “Therapeutic effect on zebrafish non-alcoholic fatty liver (in words)” value is on record as “significant therapeutic effect” and the “The total optical density of liver fat” value amounted to 17802 ± 487 Pixels. Further, the inhibition at 100 µM in data set [2] (setting [5]) came out at 83%. Besides, the inhibition at 200 µM in data set [2] (Danio rerio, 200 μM, read-out: Inhibition rate of liver steatosis) came out at 99%. The same compound registered a TG in the data set on NASH mice (35 mg/kg/day) of 1.21 ± 0.05 mmol/L. Also, in the data set on NASH mice (35 mg/kg/day intragastric), the “Liver coefficient (liver weight/body weight)” value is reported as 4.43 ± 0.31 % and the Liver weight worked out at 1.39 ± 0.03 g. This compound returned a TG with NASH mice (70 mg/kg/day) of 1.18 ± 0.06 mmol/L. Moreover, in the data set with NASH mice (70 mg/kg/day intragastric), the “Liver coefficient (liver weight/body weight)” value is recorded as 4.54 ± 0.33 % and the Liver weight is on record as 1.43 ± 0.03 g. For the same compound, in the data set on NASH mice (35 and 70 mg/kg), the “Therapeutic effect on non-alcoholic steatohepatitis in mice (in words)” value is recorded as “significant therapeutic effects”. In the data set with NASH mice (liver, 35 mg/kg/day), this compound gave an MDA of 2.91 ± 0.42 nmol/mg, an SOD of 18.08 ± 3.90 U/mg and a TC of 1.51 ± 0.06 mmol/L. In the data set with NASH mice (liver, 70 mg/kg/day), this compound came in with an MDA of 2.80 ± 0.21 nmol/mg, an SOD of 17.42 ± 4.16 U/mg and a TC of 1.51 ± 0.11 mmol/L. Further, in the data set with NASH mice (serum, 35 mg/kg/day), the ALT was determined as 89.08 ± 18.93 U/L, the AST is recorded as 140.13 ± 13.93 U/L, the HDL-C is listed as 0.95 ± 0.33 mmol/L and the LDL-C was determined as 2.55 ± 0.50 mmol/L. Besides, in the data set with NASH mice (serum, 35 mg/kg/day), the TC is 2.59 ± 0.32 mmol/L, the TG came to 1.18 ± 0.02 mmol/L and the TNF-α was 414.20 ± 13.46 ng/L. In the data set with NASH mice (serum, 70 mg/kg/day), this compound yielded an ALT of 98.29 ± 75.07 U/L, an AST of 120.04 ± 12.55 U/L, an HDL-C of 0.97 ± 0.37 mmol/L and an LDL-C of 2.13 ± 0.54 mmol/L. In the data set on NASH mice (serum, 70 mg/kg/day), this compound yielded a TC of 2.58 ± 0.30 mmol/L, a TG of 1.24 ± 0.16 mmol/L and a TNF-α of 415.80 ± 13.54 ng/L.
